From US20260325575A1, “THE USE OF BORATE DERIVATIVES IN THE TREATMENT OF NEURODEGENERATIVE DISEASES” (YEDITEPE UNIVERSITESI, priority 2022, published 2026)

Columns and labels:
ALS patients = details: cited from earlier work
[1] = system: SHSY5Y cells differentiated into neuron cells; experiment: Cytotoxicity analysis (MTS); assay type: cell-based, human; details: 24 hours, neuronal cells
Method: (§1) SHSY5Y cells stocked in cryo tubes at −80° C. or liquid nitrogen were kept in a water bath at 37° C. until completely solved. The solved cells were transferred to 15 ml Falcon tubes containing 5 ml cell medium and centrifuged at 300×g for 5 minutes. After centrifugation, the medium on the cells was removed and the cells were solved with 1 ml of fresh medium using a pipette. Then, the cells were transferred to cell flask containing 12 ml DMEM/F12 medium and incubated at 37° C. for 24±2 hours in an incubator containing 5% CO2.
(§2) The next day, the medium on the adherent cells was changed and incubation was continued until the cells formed 85%-90% monolayer […]. The medium of the monolayered cells was removed and the cells were washed with 5 ml PBS. […]
(§3) After the incubation period was completed, the medium on the cells was removed and the cells were washed again with 1 ml PBS. […] At the end of the tenth day, neuronal cells were ready.
(§4) After the incubation period was completed (24 hours), the medium on the cells was removed and replaced with 10% MTS solution prepared in the cell medium. […] After incubation, absorbance measurements were made using an ELISA plate reader at 490 nm. From the absorbance values obtained, cell viability was calculated according to the formula ((Mean Cell Abs./Mid. Negative Con. Abs.)*100). […]

[2] = Cytotoxicity analysis (MTS); assay type: cell-based, human; details: human, differentiated sh-sy5y cells, neuronal cells, read-out: non-toxic concentration
Method: as §1, §2, §3, §4

[3] = system: gene expression in brain and spinal cord tissues of transgenic mice; experiment: Microarray gene expression and pathway analysis (PANTHER GO) in brain and spinal cord; assay type: in vivo, mouse (C57BL/6 SOD1 G93A; details: transgenic animals, n=3
Method: FIG. 2. is a representation of the gene expressions of the other groups compared to the transgenic control group in the form of a heat map, as a result of the microarray analysis performed on the spinal cord materials of the transgenic and wild type experimental groups (n=3 per group) that received NaB, SPT and water only. (Statistical differences between groups were compared using Volcano plot analysis (two-way ANOVA; P values<0.05) and fold change ±2 and more were considered statistically significant).
FIG. 3. is a representation of some of the pathways in which SPT and NaB derivatives are found to be effective as a result of the pathway analysis (PANTHER Gene Ontology (GO) Classification and Pathway System) and of the number of genes located in these pathways (Total number of genes: 2677, total number of hits: 443).
In addition to measurements of motor function, in order to investigate whether derivatives induce any gene-based changes in the Central nervous system, brain and spinal cord materials were collected from wild type and transgenic control (water), NaB and SPT group animals with n=3 and RNA was isolated from these materials and microarray analysis was performed. […]

[4] = system: SOD1 G93A transgenic mice; experiment: Rotarod test (motor performance) in SOD1 G93A transgenic mice; assay type: in vivo, mouse (C57BL/6 SOD1 G93A; details: 200 mg/kg by gavage every other day for 3 weeks; vs transgenic control (water); 14 rpm, max 180 s; n=8
Method: In the in vivo studies conducted, the SOD1 G93A transgenic mice model, which is one of the most preferred animal models for modeling ALS disease, was used. In the study (n=8); SPT and NaB were administered to the animals every other day by gavage. As a result of the comparison of the motor functions of these transgenic animals that received SPT and NaB throughout the experiment with the motor functions of the transgenic control (water) group, it was observed that SPT increased the performance of the rotarod test by 88.4% in the SOD1 G93A model compared to the control group (P<0.01). […] In the group that received water, it was observed that the findings aggravated over time and the rotarod performance decreased.
Example 1 Information about the Experimental Animals Used
Example 2 Experimental Groups
Example 3 Substance Administration
SPT or NaB derivatives at 200 mg/kg per mouse were vortexed at high speed and dissolved in the daily drinking water of the mice. […]
The mice were acclimatized with the rotarod test apparatus for one day before their motor function was tested and their performance was recorded at the end of the second day. Their motor performances were measured three times for a maximum of 180 seconds at a constant speed of 14 rpm, and their longest residence time on the apparatus was recorded. […]

[5] = system: Amyloid beta plaques in SHSY5Y cells differentiated into cholinergic neurons; experiment: Amyloid beta plaques in Alzheimer's model, immunocytochemistry (fluorescence); assay type: cell-based, human
Method: SH-SY5Y cells were seeded in 6-well plates with 250×10^5 cells in each well and incubated with medium containing DMEM/F12, 10% FBS, 1% PSA at 37° C. in 5% CO2 for 24 hours. Then, the medium on the cells was removed and each well was washed with 1 ml PBS. Then, 2 ml of differentiation medium (1% FBS, 10 μM/ml RA) was added to each cell well and cells were incubated for 72 hours.
After the incubation period was completed, the medium on the cells was removed and the cells were washed again with 1 ml PBS. Afterwards, 2 ml of differentiation medium (1% FBS, 10 μM/ml RA, 10 μg/ml BDNF) was added to the cells and incubated for 72 hours. The same procedure was repeated on the seventh day. At the end of the tenth day, neuronal cells were ready.
Obtaining Alzheimer's Model and Evaluation of Active Substances
Immunocytochemistry Analysis
The old media on the incubated cells were removed and the cells were washed three times with 1 ml PBS.
Firstly, cells were fixed with 1 ml of 2% paraformaldehyde for 30 min at room temperature and then washed three times with PBS. […]
After incubation, the cells were washed three times with PBS. […] Finally, the cells were washed three times with PBS and measurements were taken with a fluorescence microscope (Zeiss).
The data obtained from the immunocytochemistry study were analysed using Image J (National Institutes of Health) and MS Excel.

[6] = system: SOD1 G93A transgenic mice; experiment: Neuroscoring, phenotypic characteristics of NS1 phase; assay type: in vivo, mouse (C57BL/6 SOD1 G93A
Method: SPT or NaB derivatives at 200 mg/kg per mouse were vortexed at high speed and dissolved in the daily drinking water of the mice. Borate Solutions prepared thus in drinking water were administered to mice by gavage every other day for 3 weeks. The control group received only the same amount of drinking water by gavage.
In order to observe during the experiment the stages when early and late symptoms of the disease occur, wild-type and transgenic animals were subjected to neuroscoring as described in the study by Hatzipetros et al. In this way, it was aimed to observe whether the administration to the animals caused any difference in the onset, course and severity of ALS symptoms. For this, the table of the disease course is graded with a scoring System as follows: • 1. Neuro Score 0 (NS 0, Pre-symptomatic): When suspended by the tail, the mouse can fully extend its hindlimbs away from the lateral midline to the side in a normal manner and stay in this position for at least two seconds or longer. When the mouse is allowed to walk, normal gait is observed. • 2. NS 1 (First symptoms): When the mouse is suspended by the tail, its hindlimbs cannot fully extend away from the lateral midline, they partially collapse backwards or the hindlimbs are observed to tremble (tremor). Towards the end of the phase, gait disturbances and slow gait (ataxia) begin. The first symptoms usually appear as of day 90. • 3. NS 2 (Partial paralysis, paresis): When the mouse is suspended by the tail, its hindlimbs are partially or completely collapsed, or cannot extend much, there is still joint movement. When the mouse is allowed to walk, it can use its hindlimbs for forward motion, however it is observed that its toes curl backwards at least twice during a 90 cm walk or it can move by dragging its feet. When the mouse is placed on its left or right side, it is able to right itself within 10 seconds. • 4. NS 3 (Paralysis): When the mouse is suspended by the tail, it is observed that there is rigid paralysis in its hindlimbs or minimal joint movement. When the mouse is allowed to walk, it is observed that there is forward motion however it cannot use its hindlimbs. When the mouse is placed on its left or right side, it is observed that it is able to right itself within 10 seconds. • 5. NS 4 (Humane end-point): When the mouse is suspended by the tail, it is observed that there is rigid paralysis in its hindlimbs. When the mouse is allowed to walk, no motion is observed, when the mouse is placed on its left or right side it is observed that it is not able to right itself within 10 seconds, i.e., absence of righting reflex.
According to this scoring system, if we divide the symptoms observed in animals into phases according to the order of occurrence, 50-80 days after birth can be considered pre-symptomatic. Since as of day 90 the first symptoms start to appear, we can consider this date as the beginning of the early symptomatic phase and also the beginning of neuroscore 1. Although it can vary, this period can last 20-38 days and also covers the neuroscore 2 phase. As of day 120 on average, the process is called late symptomatic. Although it may last a little longer in females, this period lasts 5-10 days on average and neuroscore 3 and 4 phases are also observed during this late symptomatic period

[7] = day 90, 200 mg/kg by gavage every other day, tg mice
[8] = day 110, 200 mg/kg by gavage every other day, tg mice

Nc1nc2ccc(OC(F)(F)F)cc2s1 [Riluzole]
extension of patient's life span (ALS patients): approximately a few months

Amyloid Beta: Amyloid Beta (Aβ), applied to differentiated SHSY5Y cells to create an Alzheimer's model [reference compound]
non-toxic concentration [1]: 4 µg/mL

O.O.O.O.O.O=BO[B-](OB=O)(OB=O)OB=O.[Na+] [NaB, sodium; tetrakis(oxoboranyloxy)boranuide; pentahydrate]
MNTC at 24 h [2]: 5 µg/mL | gene expression compared to transgenic control / wild type [3]: reversed the gene expression at a statistically significant rate, approximating it to the gene expression level in wild type animals | increase in rotarod performance compared to the control group [4]: 62.45% | cells with Amyloid beta plaques ([5]; 24 hours, substance alone (ONaB or OAβ group)): 0% | inhibition at 5 µg/mL ([5]; Homo sapiens, SH-SY5Y, 24 h, read-out: plaques dissolved in Aβ+NaB group compared to the OAβ group): 92.4% | classical symptoms of stage 1 (NS1) at the end of the experiment (hindlimb retraction, tremor and ataxia) ([6]; animals still in NS1 at end of experiment, vs control group): considerably weaker than those in the control group | s3 (ataxia), day 80 (t = 0) ([6]; day 80, before administration, tg mice): very mild | s1 (hindlimb retraction), day 90 (onset of the disease-NS1) [6, 7]: mild | s2 (tremor), day 90 (onset of the disease-NS1) [6, 7]: mild | s3 (ataxia), day 90 (onset of the disease-NS1) [6, 7]: mild | s1 (hindlimb retraction), day 110 (experiment endpoint) [6, 8]: moderate | s2 (tremor), day 110 (experiment endpoint) [6, 8]: moderate | s3 (ataxia), day 110 (experiment endpoint) [6, 8]: moderate
